In patent publication US9193731B2, “Antimicrobial compounds and methods of making and using the same” (Melinta Therapeutics, Inc., priority 2009, dated 2015):

Tested on: Escherichia coli strain ATCC25922
Assay: standard microdilution assay to determine minimum inhibitory concentrations (MICs)
Format: cell-based
Details: Escherichia coli strain ATCC25922, microdilution
Summary of the method: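 E. coli strain ATCC25922 tested per CLSI microdilution methodology (about 100 microliters per well) to find minimum inhibitory concentrations. Activity scored categorically at a 16 micrograms/ml threshold.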

Row | SMILES | E. coli ATCC25922 MIC
1 | N=C(N)NCCCNCc1ccc(-n2cc3cc(-c4cc(C(=O)Nc5cccc(F)c5)cc(N5CCNCC5)c4)[nH]c3nc2=O)cc1 [Compound 982] | + (a “+” indicates that the compound has an MIC value of 16 micrograms/ml or less)
2 | CN(C)Cc1ccc(-n2cc3cc(-c4ccc(S(=O)(=O)N(Cc5ccc(Cl)c(Cl)c5)C5CCNCC5)cc4)[nH]c3nc2=O)cc1 [Compound 983] | − (a “−” indicates that the compound has an MIC value greater than 16 micrograms/ml)
3 | N=C(N)NCCCN1CC=C(n2cc3cc(-c4ccc(S(=O)(=O)N(CC5COc6ccccc6O5)C5CCNCC5)cc4)[nH]c3nc2=O)CC1 (stereo not shown) [Compound 984] | + (a “+” indicates that the compound has an MIC value of 16 micrograms/ml or less)
4 | NCc1ccc(-n2cc3cc(-c4ccc(S(=O)(=O)N(CC5COc6ccccc6O5)C5CCNCC5)cc4)[nH]c3nc2=O)cc1 (stereo not shown) [Compound 985] | − (a “−” indicates that the compound has an MIC value greater than 16 micrograms/ml)
5 | Cc1cc(C)n2nc(CCCN(C3CCNCC3)S(=O)(=O)c3ccc(-c4cc5cn(-c6ccc(CNCCCNC(=N)N)cc6)c(=O)nc5[nH]4)cc3)nc2n1 [Compound 986] | − (a “−” indicates that the compound has an MIC value greater than 16 micrograms/ml)
6 | CN(C)Cc1ccc(-n2cc3cc(-c4ccc(S(=O)(=O)N(CCCN5CCCCC5)C5CCNCC5)cc4)[nH]c3nc2=O)cc1 [Compound 987] | − (a “−” indicates that the compound has an MIC value greater than 16 micrograms/ml)
7 | N=C(N)NCCCNCc1ccc(-n2cc3cc(-c4ccc(S(=O)(=O)N(CC5CN(Cc6ccccc6)CCO5)C5CCNCC5)cc4)[nH]c3nc2=O)cc1 (stereo not shown) [Compound 988] | + (a “+” indicates that the compound has an MIC value of 16 micrograms/ml or less)
8 | CN(Cc1ccccc1)C(=O)c1cc(-c2cc3cn(-c4ccc(CNCCCNC(=N)N)cc4)c(=O)nc3[nH]2)cc(N2CCNCC2)c1 [Compound 989] | + (a “+” indicates that the compound has an MIC value of 16 micrograms/ml or less)
9 | N=C(N)NCCCNCc1ccc(-n2cc3cc(CCS(=O)(=O)N(CCCc4ccccc4)C4CCNCC4)[nH]c3nc2=O)cc1 [Compound 990] | + (a “+” indicates that the compound has an MIC value of 16 micrograms/ml or less)
10 | N=C(N)NCCCNCc1ccc(-n2cc3cc(CCS(=O)(=O)N(CCC4CCCN4)C4CCNCC4)[nH]c3nc2=O)cc1 (stereo not shown) [Compound 991] | + (a “+” indicates that the compound has an MIC value of 16 micrograms/ml or less)
11 | N=C(N)NCCCNCc1ccc(-n2cc3cc(CCS(=O)(=O)N(CCCc4ccccc4F)C4CCNCC4)[nH]c3nc2=O)cc1 [Compound 992] | + (a “+” indicates that the compound has an MIC value of 16 micrograms/ml or less)
12 | N=C(N)NCCCNCc1ccc(-n2cc3cc(-c4cc(C(=O)Nc5ccc(F)cn5)cc(N5CCNCC5)c4)[nH]c3nc2=O)cc1 [Compound 994] | + (a “+” indicates that the compound has an MIC value of 16 micrograms/ml or less)
13 | N=C(N)NCCCNC(=O)c1ccc(-n2cc3cc(-c4ccc(S(=O)(=O)N(Cc5ccc(Cl)c(Cl)c5)C5CCNCC5)cc4)[nH]c3nc2=O)cc1 [Compound 995] | + (a “+” indicates that the compound has an MIC value of 16 micrograms/ml or less)
14 | N=C(N)NCCCNC(=O)c1ccc(-n2cc3cc(-c4ccc(S(=O)(=O)N(CC5CC5)C5CCNCC5)cc4)[nH]c3nc2=O)cc1 [Compound 996] | + (a “+” indicates that the compound has an MIC value of 16 micrograms/ml or less)
15 | N=C(N)NCCCNCc1ccc(-n2cc3cc(-c4cc(C(=O)NCCCF)cc(N5CCNCC5)c4)[nH]c3nc2=O)cc1 [Compound 997] | + (a “+” indicates that the compound has an MIC value of 16 micrograms/ml or less)
16 | Cc1cc([N+](=O)[O-])nn1CCCN(C1CCNCC1)S(=O)(=O)c1ccc(-c2cc3cn(-c4ccc(CNCCCNC(=N)N)cc4)c(=O)nc3[nH]2)cc1 [Compound 998] | + (a “+” indicates that the compound has an MIC value of 16 micrograms/ml or less)
